# Legend:
# [1] = tested on: forskolin-stimulated accumulation of cAMP; experiment: Cyclic AMP accumulation in intact cells (block of forskolin-stimulated accumulation of cAMP); assay type: cell-based; conditions: for EC50: 10 min, 37° C.; for Emax: relative to melatonin, read-out: I.A. (Intrinsic Activity) = Emax (experimental compound)/Emax (melatonin)
# Excerpt: Further, the compounds are agonists as determined by their ability, like melatonin, to block the forskolin-stimulated accumulation of cAMP in certain cells.
# Measurement of Functional Activity
# Cyclic AMP Accumalation in Intact Cells: Melatonin
# Remove media from cell flask and wash with Hank's salt solution or PBS as appropriate. Detach cells from flask using whatever means are used when splitting. Add enough media so that the concentration of cells is 4×10^5 /ml when counted with a hemocytometer (40 cells in the center square). This concentration of cells can Vary depending on the ultimate cAMP response of the type of cells used. Also, dialyzed fetal bovine serum (FBS) or heat inactivated FBS should be used in the-media when plating the cells in case endogenous substances are present in the FBS that might interfere with the test. Add 1 ml of cell suspension to each well (4×10^5 cells/well), then 2 mls of media and incubate cells overnight.
# SOLUTIONS needed for cyclase:
# 1. Stock solution: plain media (no serum or additives) +20mM HEPES. (500 ml bottle media+10 mls of 1M HEPES GIBCO stock). This solution can be refrigerated and reused.
# 2. IBMX solution: media/HEPES+1 mM IBMX. (50 mls+11.1 mg IBMX, IBMX mw=222.2). This solution can be refrozen.
# 3. Assay solution: 90% stock solution+10% IBMX solution. Figure out the volume of solution needed for the assay. Each well gets 3 mls of assay solution for a preincubation and 3 mls for the actual assay, therefore, 6 mls/well. Each test condition is done in triplicate.
# a) Basal 7 mls assay solution +[…]
# b) Forskolin Stimulation: […]: 7 mls assay solution +[…] (stock solution in freezer, in DMSO)
# c) Forskolin+competitor (melatonin): […]: 7 mls assay solution +[…]+desired concentration of competitor (melatonin). Solutions b) and c) can be combined when adding forskolin, then split before adding competitor.
# All solutions should be warmed to 37° C. All test conditions are done in triplicate. Plates with cells are kept in a shallow 37° C. water bath throughout the reaction. Remove media from the wells and add 3 ml of preincubation media. After 10 min, remove that solution and add 3 mls of drug solution. After 10 min the media is removed and reaction stopped with 1 ml 0.1N HCl. Staggering the incubation is recommended. The preincubation step can be eliminated if the cells don't adhere well to the plate or the plates can be pretreated with extracellular matrix such as poly-D-lysine. Let samples set for at least an hour at room temperature. Remove 1 ml from dish and put into a microfuge tube. Do a 3 min spin to remove floating cells. Dilute 1:100 for RIA (this dilution will vary depending on the concentration curve of the RIA kit and the cAMP response and concentration of the cells). Do radioimmunoassay (Amersham: Cat.no. RPA.509).
# [2] = tested on: [^125 I]-2-iodomelatonin binding; conditions: comparative study; Copinga et al, J.Med. Chem., 1993, 36, 2891; cited from earlier work
# [3] = tested on: rats; conditions: exogenous melatonin administration, Cassone, et al., 1986; cited from earlier work
EC50 [1] [nM],Structure (SMILES),Emax [1] [%],"[125I]-2-iodomelatonin binding properties, in words [2]",synchronization of circadian rhythms [3]
4.9,"CCCC(=O)NCCCc1cccc(OC)c1 [Example 2, N-[3-(3-Methoxyphenyl)propyl]butanamide]",95,,
120,"COc1ccc(F)c(/C=C\CNC(=O)C(C)C)c1 [Example 7, cis-N-[3-(2-Fluoro-5-methoxyphenyl)-2-propenyl]-2-methylpropanamide]",120,,
3.4,"COc1cc(CCCNC(=O)C2CC2)ccc1Cl [Example 30, N-[3-(4-Chloro-3-methoxyphenyl)propyl]-cyclopropane carboxamide]",98,,
,COc1cccc(CCNC(C)=O)c1 [compound 10],,markedly inferior,
,"COc1ccc2[nH]cc(CCNC(C)=O)c2c1 [melatonin, N-acetyl-5-methoxytryptamine]",,,found to synchronize circadian rhythms in rats
